Data taken from patent publication US20250160328A1, “COMPOSITIONS AND METHODS FOR REDUCING PARASITIC INFESTATION OF HONEY BEE HIVES” (University of Georgia Research Foundation, Inc., priority 2022, published 2025).
“And” between values parts separate entries of the source, which are not always exact repeats. Equal entries are not always repeated.

Columns and labels:
[1] = tested on: adult carabid beetles; conditions: Larson et al., Pest Manag. Sci. 2012; cited from earlier work
[2] = tested on: honey bees; assay: Adult Honeybee Atoxicity Assays (mortality cages)
Experimental: In all instances, isocaloric sugar feed solutions were used (all honey bees were exposed to feed of equivalent sugar concentration). Both sets of experiments also tested the safety of methanol as a solvent for carrying the chlorantraniliprole. Mortality cages used approximately 20-50 bees per cage replicated across numerous colonies. Each cage was treated with one experimental dose of feed. Each colony donates a cage of bees to each dose in a full factorial experiment in line with tests used for EPA evaluation. Mortality was recorded at 24 hours and 48 hours.
Treatments included chlorantraniliprole concentrations of: 0 (w/methanol), 0 (w/o methanol), 0 (positive dimethoate control), 5, 15, 65, 250 μg/mL.

[3] = tested on: adult small hive beetles; assay: SHB Adult Feed Toxicity and Reproduction Assay; assay type: in vivo, Aethina tumida
Experimental: In-feed testing with adult small hive beetles was done with small hive beetle adults taken from colonies in the field and individuals reared in-lab. Adults from the field and in-lab were given three days to acclimate together in a large container with feed (2 parts pollen supplement; 1 part pollen; 1/2 part honey) in an incubator at 30 C. Simultaneously, 50 mg of Chlorantraniliprole was suspended in 50 mL (1.25 g/mL) glycerol, which was then mixed into 100 g feed, resulting in a concentration of 0.3 mg Chlorantraniliprole per 1 gram feed. A concentration of 100 μg of active ingredient per 1 gram feed was then achieved via dilution with feed and glycerol solution. Using serial dilution, feeds with varying concentrations of active ingredient were mixed, producing feeds with 100 μg, 10 μg, 1 μg, 0 μg (control) active ingredient per 1 g feed. Following the acclimation period, approximately 10 adult small hive beetles (some pots contained more than 10 individuals, but no more than 12) were randomly assigned to 32 pots, with 8 pots randomly assigned to each treatment (100 μg, 10 μg, 1 μg, 0 μg Chlorantraniliprole). Mortality and reproduction were then monitored at 4, 6, 18 and 34 days.

[4] = tested on: bumblebee colony; conditions: in vivo; cited from earlier work
[5] = tested on: small hive beetle (SHB); assay: Field Assay: SHB infestation of pollen supplement patties in hives; assay type: in vivo, Aethina tumida; conditions: approximately 10 μg chlorantraniliprole per 1 g protein feed
Experimental: FIG. 2 is a bar graph of the experimental results from FIG. 1, showing the infestation rates of protein substitute mixed with concentrated solution of chlorantraniliprole, methanol, and glycerol according to trial instructions compared to untreated/control supplementary feed. Instructions achieved approximately 10 μg chlorantraniliprole per 1 g protein feed. Briefly, chlorantraniliprole was dissolved in methanol at a ratio of 1 mg chlorantraniliprole to 1 ml methanol via agitation/stirring. Chlorantraniliprole-methanol solution was cooled to −20° C. and then suspended/mixed into glycerol also cooled to −20° C. and stored between 4° C. and −20° C. to create a shelf-stable product. Product was then mixed into lethal attractant/supplementary feed at a rate of 50 ml formulated product per 1 kg feed or attractant via either mechanical or hand mixing at ambient temperature (200 ml of 80% glycerol/20% methanol was added to 4 kg of protein feed (i.e., 40 ml glycerol and 10 ml methanol per 1 kg protein feed). Treated attractant/feed mixture was then ready for deployment in the honey colony.
Pollen supplement was weighed out into two masses, each approximately 4 kg. To create the control pollen supplement patties, 200 ml of 80% glycerol, 20% methanol by volume solution was added to the pollen supplement mass. […]

[6] = tested on: honey bees; conditions: cited from earlier work; for intoxication symptoms to honey bees: under certain test conditions, Minnesota Department of Agriculture website
[7] = tested on: small hive beetle adults; assay: SHB Adult Exposure Toxicity Assay (contact); assay type: in vivo, Aethina tumida
Experimental: Testing on chlorantraniliprole contact effectiveness was also conducted on small hive beetle adults. Each plate in which small hive beetles were placed contained an approximately 1 in×1 in square of absorbent shop towel located in the middle of the pot, soaked with solution via pipette. Tests included a methanol-negative (1:1 sugar to water/w) control group with 6 plates of 8 individuals, a methanol-positive (1:1 sugar to water/w solution with methanol then added in to be 1/6 of volume) control group with 7 plates of 8 individuals, a 5 μg treatment group (same as methanol-positive control with 5 μg a.i. added) with 7 plates of 8 individuals, and a 10 μg group (same as methanol-positive control with 10 μg a.i. added) with 7 plates of 8 individuals. Numbers of live beetles were tallied at the end of the test period.

[8] = 10 μg/g chlorantraniliprole in feed
[9] = 100 μg/g chlorantraniliprole in feed

CNC(=O)c1cc(Cl)cc(C)c1NC(=O)c1cc(Br)nn1-c1ncccc1Cl [chlorantraniliprole]
in-field toxicity to adult carabid beetles [1]: no evidence of apparent in-field toxicity
sublethal effect observed in honeybees ([2]; 250 μg/mL, the very highest dose): Sublethal lethargy
adult bee mortality at effective control concentrations ([2]; USDA-standard laboratory trials, FIG. 4): no adult bee mortality
honey bee mortality in relation to dose ([2]; set one 1.25-10 μg/mL, set two 5-250 μg/mL in sugar feed, 24 hours and 48 hours): no significant increase in honey bee mortality
SHB larvae observed (reproduction) ([3]; 1 μg/g chlorantraniliprole in feed): few larvae were observed but subsequently died while still in their first or second instars
SHB larvae observed (reproduction) [3, 8]: No evidence of any larvael SHB
mortality of adult small hive beetles [3, 8]: Elevated mortality
SHB larvae observed (reproduction) [3, 9]: No evidence of any larvael SHB
time of exposure by which all adult small hive beetles were dead [3, 9]: ≤ 6 days
effects on bumblebee colony growth or mortality [4]: no detectable negative effects
SHB infestation of patties in the five day field trial period ([5]; 5 days in hives): remained free of SHB infestation
SHB infestation of supplementary food after two weeks of incubation to hatch eggs ([5]; 5 days in hives then 14 days at 30 C): remained SHB-infestation free and 10/10
LD50 to Apis mellifera (EPA 2008) ([6]; EPA registration documentation as a lawn-treatment): > 0.1 mg/bee
oral toxicity (LD50) for bees, EPA Data ([6]; oral): exceeds 100 μg a.i. per bee
intoxication symptoms to honey bees [6]: little or no intoxication symptoms
fold less toxic than clothianidin to Apis mellifera ([6]; versus a comparable neonicotinoid, clothianidin): more than 2000 ×
mortality of adult small hive beetles via contact exposure ([7]; 5 μg and 10 μg a.i. on soaked shop towel in sugar water/methanol): no evidence of elevated mortality
survival of adult small hive beetles ([7]; 5 μg and 10 μg a.i., contact exposure, end of test period): all adult small hive beetles survived the experiment

Cc1cc(C(F)(C(F)(F)F)C(F)(F)F)ccc1NC(=O)c1cccc(I)c1C(=O)NC(C)(C)CS(C)(=O)=O [flubendiamide]
intoxication symptoms to honey bees [6]: little or no intoxication symptoms

CO [methanol]
toxicity of the solvent to honey bees ([2]; methanol in sugar feed (30% by volume in set one) versus no methanol): No evidence of any toxicity
